[invdT] = inverted (3'-3') thymidine
Columns and labels:
PDGF AB = PDGF AB (Homo sapiens, UniProt P01127); assay: Binding of ARC124 to PDGF AB
PDGF BB = PDGF BB (Homo sapiens, UniProt P01127); assay: Binding of ARC124 to PDGF BB
[1] = system: HT29 colon cancer xenograft; assay: HT29 colon cancer xenograft model; assay type: in vivo, Nu/Nu mice; conditions: GLEEVEC 50 mg/kg orally BID Qd5 + irinotecan 150 mg/kg weekly vs irinotecan alone
[2] = system: LS174T colon cancer xenograft; conditions: Monday through Friday
Excerpt: Experimental overview. Human HT-29 or LS174T colon cancer xenotransplants were established in athymic nude mice (Nu/Nu mice, Charles River Labs, Wilmington, Mass.) by injecting mice with 1×10^7 HT29 cells (ATCC, Manassas, Va.), or 2×10^6 LS174T cells (ATCC Manassas, Va.) sub-cutaneously and allowing the tumors to grow for 5 days. On day 5, two dimensional measurements of the established tumors were taken using a digital caliper. Once tumor measurements were taken, the mice were randomized into groups such that the average tumor size was the same in each group. […]
A third experiment (Experiment 3) was designed to test ARC308/irinotecan and GLEEVEC™/irinotecan dosing regimens in a colon cancer xenotransplant model using human colon carcinoma cell line LS174T (ATCC). […] ARC308 was dosed via intraperitoneal delivery at 50 mg/kg once daily, and GLEEVEC™ was dosed at 50 mg/kg once daily, Monday through Friday. ARC308 prevents PDGF-BB from binding the PDGF receptor; this molecule has a 30K PEG attached. […] The results are statistically significant (two tailed students T-test).
An efficacy analysis of three treatment groups in this study is shown in Table 10 in terms of log cell kill and log cell kill net. Log cell kill is the log(base10) of the number of tumor cells before treatment divided by the number of cells after treatment. […] A fourth experiment (Experiment 4) was designed to further test ARC308/irinotecan dosing regimens in a colon cancer xenotransplant model using human colon carcinoma cell line LS174T (ATCC). […]

HCT-116 tumor = conditions: irinotecan 100 mg/kg plus Gleevec 50 mg/kg orally twice a day
Protocol: Each group was assigned to a treatment regimen as follows. […] Doses were adjusted for changing body weight twice per week and all mice were dosed with vehicle or aptamer at 10 ml of dosing solution per kg body weight given intraperitoneally. […] Groups 3, 10 and 11 were dosed with vehicle intraperitinoneally once per day from days 8-25. Groups 3, 5, 7, 8, and 9 were dosed on day 11, 18 and 25 with irintoecan (100 mg/kg, intraperitoneally). […] Group 11 was dosed on day 11 and 25 with irintoecan (100 mg/kg, intraperitoneally) and twice a day with imatinib at 50 mg/kg given orally on days 8-12 and 23-25.
The aptamer was allowed to come to room temperature for an hour before dosing. Unused material was stored at 4° C. for use the next day. Normal saline for the vehicle control was sterile filtered into sample vials and stored in the same manner as the aptamer dosing solutions. Aptamer and vehicle dosing solutions were coded so that the personnel dosing were blinded from their identity.

Sequence of PDGF AB (P01127 82-190 limits assumed, other chains not shown): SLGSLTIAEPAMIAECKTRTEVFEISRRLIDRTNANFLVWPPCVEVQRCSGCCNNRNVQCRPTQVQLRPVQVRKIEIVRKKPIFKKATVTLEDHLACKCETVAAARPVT
Sequence of PDGF BB (P01127 82-190 limits assumed): as the sequence (P01127 82-190 limits assumed, other chains not shown) above

Compound	Kd (PDGF AB) [nM]	Kd (PDGF BB) [nM]	efficacy of irinotecan (rate of tumor growth) [1]	tolerability of dosing regimen ([2]; Experiment 2: GLEEVEC 100 mg/kg once daily, P.O.)	efficacy of irinotecan (rate of tumor growth) ([2]; Experiment 3: GLEEVEC 50 mg/kg once daily, P.O + irinotecan)	mice dead by day 17 (HCT-116 tumor)
5′ CACAGGCTACGGCACGTAGAGCATCACCATGATCCTGTG-3′InvdT (SEQ ID NO:11) (DNA, 3' [invdT], backbone not given here) [ARC124]	~0.1	~0.1				
Cc1ccc(NC(=O)c2ccc(CN3CCN(C)CC3)cc2)cc1Nc1nccc(-c2cccnc2)n1 [GLEEVEC™, imatinib, reference compound]			enhanced the efficacy of irinotecan treatment	made the animals moribund	did not enhance the efficacy of Irinotecan	4 of 12

From patent publication US20090053138A1, “Stabilized Aptamers to Platelet Derived Growth Factor and their Use as Oncology Therapeutics” (priority 2002, published 2009)
